Literature values, collected in patent US12343417B2, “Antiperspirant compositions” (Conopco, Inc., priority 2018, dated 2025).

Test system: Staphylococcus epidermidis
Conditions: 80% or greater reduction in growth over 16 to 24 hours at 37° C.

MIC	SMILES
ca. 25 μg·ml^−1	CC(C)=CCCC(C)=CCCC(C)=CCO [farnesol, 3,7,11-trimethyldodeca-2,6, 10-trienol]
greater than 1 mg·ml^−1	CCO [ethanol]

SMILES	MIC
Oc1cc(Cl)ccc1Oc1ccc(Cl)cc1Cl [triclosan, 2′,4,4′-trichloro,2-hydroxy-diphenyl ether]	0.01 to 10 µg/mL
